The target of assay [1] is T1, AGTR1 (Homo sapiens, UniProt P30556).
T1 construct: host or cells: Pathunter CHO-K1 AGTR1 β-arrestin cell line (CHO-K1)
T1 sequence (P30556 1-359): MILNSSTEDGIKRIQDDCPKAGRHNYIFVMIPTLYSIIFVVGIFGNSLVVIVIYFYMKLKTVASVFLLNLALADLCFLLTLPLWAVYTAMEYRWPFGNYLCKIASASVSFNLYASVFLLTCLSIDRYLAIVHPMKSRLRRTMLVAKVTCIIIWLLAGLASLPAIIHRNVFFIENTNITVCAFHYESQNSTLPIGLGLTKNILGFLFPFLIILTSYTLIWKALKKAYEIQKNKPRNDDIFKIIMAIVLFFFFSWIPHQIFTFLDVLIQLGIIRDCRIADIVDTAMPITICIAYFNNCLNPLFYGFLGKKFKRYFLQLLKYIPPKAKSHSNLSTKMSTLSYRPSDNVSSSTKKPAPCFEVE
Briefly: DiscoveRx IP1 accumulation assay (HTRF), agonist mode, Pathunter CHO-K1 AGTR1 β-arrestin cell line. The note with it: for EC50: read-out: IP-1 EC50. In kind it is cell-based. The essentials: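 Agonist mode in CHO-K1 AGTR1 β-arrestin cells plated 14-16 h before; compounds at varying concentrations for 90 min at 37° C, IP1 accumulation read by HTRF (D2-conjugate and anti-IP1 cryptate, 20 min room temperature). EC50 from 4-parameter logistic fit; activity given as percentage of maximal AII effect.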
For orientation: Time-resolved FRET reads energy transfer from a long-lived donor to a nearby acceptor.

Assay [2] has as its target T2, hAT1R (Homo sapiens, UniProt P30556).
T2 sequence (P30556 1-359): T1 sequence (P30556 1-359)
Briefly: BRET β-arrestin2 biosensor assay, higher receptor expression (hAT1R 5 ng/well), HEK293 cells. In kind it is cell-based. The note with it: for EC50: High AT1R Expression. (BRET reads energy transfer from a luciferase to a nearby fluorophore.)

The target in assay [3] is T1, AGTR1. Nature of the assay: DiscoveRx β-arrestin2 recruitment assay (enzyme complementation, Pathunter CHO-K1 AGTR1 β-arrestin cell line). Format: cell-based. The note with it: DiscoveRx β-arrestin2 recruitment; for DiscoveRx β-arrestin2 Ymax (%): maximal response. The method, boiled down: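 CHO-K1 cells expressing AGTR1 with β-arrestin2 enzyme-complementation reporter, plated 14-16 h ahead in 1% serum medium, then exposed to compounds for 90 min at 37° C. Chemiluminescence read after 1 h detection. EC50 (agonist) or IC50 (antagonist) from 4-parameter logistic fit; activity as percentage of All maximal effect.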
A general note: Activated receptors often draw arrestin, which recruitment assays turn into a signal.

Assay [4] deals with T2, hAT1R. Nature of the assay: cell-based. The note with it: agonist mode; for EC50: read-out: BRET P63 EC50.

Each structure is given as a SMILES string.

Turning to `CCc1nc2c(C)cc(C)nc2n1Cc1ccc(-c2cc(Oc3nccs3)ccc2-c2nn[nH]n2)cc1` [Example 252], in assay [1], the “IP-1 Ymax (%)” value is on record as 8.8% and the EC50 worked out at 144 nM. Further, in assay [2], the “BRET β-Arrestin2 High AT1R Expression Ymax (%)” value came to 41.4% and the EC50 turned out to be 29.4 nM. In assay [3], the midpoint of the response, the EC50, lay at 34.3 nM and the “DiscoveRx β-arrestin2 Ymax (%)” value is recorded as 15.8%. Also, the EC50 in assay [4] was above 100000 nM.
For `CCc1nc2c(C)cc(C)nc2n1Cc1ccc(-c2cc(-n3cc(C4=CCCC4)nn3)ccc2-c2nnn[nH]2)cc1` [Example 229], in assay [1], the “IP-1 Ymax (%)” value is given as 6.7% and the EC50 was found to be 195 nM. Also, in assay [2], the “BRET β-Arrestin2 High AT1R Expression Ymax (%)” value was 82.1% and it took 25.7 nM to reach a half-maximal effect (EC50). In assay [3], the EC50 was determined as 39 nM and the “DiscoveRx β-arrestin2 Ymax (%)” value was determined as 24.0%. Further, the EC50 in assay [4] was above 100000 nM.
Turning to `CCc1nc2c(C)cc(C)nc2n1Cc1cnc(-c2cc(-c3cccc(C)c3)ccc2C(=O)O)nc1` [Example 202, 3-(5-((2-ethyl-5,7-dimethyl-3H-imidazo[4,5-b]pyridin-3-yl)methyl)pyrimidin-2-yl)-3′-methylbiphenyl-4-carboxylic acid], the “IP-1 Ymax (%)” value in assay [1] is recorded as 5.7%. Moreover, the EC50 in assay [1] was 2940 nM; in assay [2] it was 1620 nM; in assay [3] it was 1110 nM; in assay [4], above 100000 nM. The “BRET β-Arrestin2 High AT1R Expression Ymax (%)” value in assay [2] was found to be 52.0%. In addition, the “DiscoveRx β-arrestin2 Ymax (%)” value in assay [3] was 19.4%.
As for `CCc1nc2c(C)cc(C)nc2n1Cc1ncc(-c2cc(-c3cccc(C)c3)ccc2C(=O)O)cn1` [Example 198, 3-(2-((2-ethyl-5,7-dimethyl-3H-imidazo[4,5-b]pyridin-3-yl)methyl)pyrimidin-5-yl)-3′-methylbiphenyl-4-carboxylic acid], in assay [1], the “IP-1 Ymax (%)” value amounted to 14.6% and the EC50 came to 646 nM. In addition, in assay [2], the “BRET β-Arrestin2 High AT1R Expression Ymax (%)” value is 95.8% and it took 428 nM to reach a half-maximal effect (EC50). In assay [3], the EC50 is 122 nM and the “DiscoveRx β-arrestin2 Ymax (%)” value was found to be 33.0%. Moreover, in assay [4], the “BRET P63 Ymax” value was 13.4% and the EC50 was found to be 7620 nM.
In the case of `CCc1nc2c(C)cc(C)nc2n1Cc1ccc(-c2cc(-c3cn(Cc4ccccc4)nn3)ccc2-c2nnn[nH]2)cc1` [Example 238], in assay [1], the “IP-1 Ymax (%)” value turned out to be 9.6% and the EC50 amounted to 1260 nM. Further, in assay [2], the “BRET β-Arrestin2 High AT1R Expression Ymax (%)” value is reported as 62.6% and the EC50 turned out to be 281 nM. Besides, in assay [3], the EC50 came out at 198 nM and the “DiscoveRx β-arrestin2 Ymax (%)” value is reported as 22.4%. Moreover, the EC50 in assay [4] is above 100000 nM.
Take `CCc1nc2c(C)cc(C)nc2n1Cc1ccc(-c2cc(Oc3cc(N)ccn3)ccc2-c2nn[nH]n2)cc1` [Example 249]: in assay [1], the “IP-1 Ymax (%)” value worked out at 17.6% and the EC50 was found to be 70.5 nM. In addition, in assay [2], the “BRET β-Arrestin2 High AT1R Expression Ymax (%)” value amounted to 80.3% and the response was half-maximal at 8 nM (EC50). In assay [3], the EC50 stood at 23.8 nM and the “DiscoveRx β-arrestin2 Ymax (%)” value worked out at 34.2%. In addition, in assay [4], the “BRET P63 Ymax” value stood at 6.6% and the EC50 stood at 9.5 nM.
In the case of `CCc1nc2c(C)cc(C)nc2n1Cc1cnc(-c2cc(-c3cccc(C)c3)ccc2C(=O)O)cn1` [Example 199, 3-(5-((2-ethyl-5,7-dimethyl-3H-imidazo[4,5-b]pyridin-3-yl)methyl)pyrazin-2-yl)-3′-methylbiphenyl-4-carboxylic acid], in assay [1], the “IP-1 Ymax (%)” value was found to be 9.3% and the EC50 stood at 713 nM. For the same compound, in assay [2], the “BRET β-Arrestin2 High AT1R Expression Ymax (%)” value was 88.5% and a half-maximal response (EC50) required 223 nM. In addition, in assay [3], the EC50 came out at 273 nM and the “DiscoveRx β-arrestin2 Ymax (%)” value stood at 34.2%. In addition, in assay [4], the “BRET P63 Ymax” value came to 9.6% and the EC50 was 571 nM.
For `CCc1nc2c(C)cc(C)nc2n1Cc1ccc(-c2cc(-c3cccc(C)c3)ccc2C(=O)O)nc1` [Example 203, 3-(5-((2-ethyl-5,7-dimethyl-3H-imidazo[4,5-b]pyridin-3-yl)methyl)pyridin-2-yl)-3′-methyl-[1,1′-biphenyl]-4-carboxylic acid], in assay [1], the “IP-1 Ymax (%)” value was 34.9% and the EC50 was found to be 5370 nM. In assay [2], the “BRET β-Arrestin2 High AT1R Expression Ymax (%)” value came to 79.1% and the EC50 came to 124 nM. In assay [3], the EC50 came out at 162 nM and the “DiscoveRx β-arrestin2 Ymax (%)” value is 32.3%. Moreover, in assay [4], the “BRET P63 Ymax” value turned out to be 5.4% and the EC50 worked out at 154 nM.
As for `CCc1nc2c(C)cc(C)nc2n1Cc1ccc(-c2cc(-c3cccc(C)c3)ccc2C(=O)O)nn1` [Example 200, 3-(6-((2-ethyl-5,7-dimethyl-3H-imidazo[4,5-b]pyridin-3-yl)methyl)pyridazin-3-yl)-3′-methylbiphenyl-4-carboxylic acid], in assay [1], the “IP-1 Ymax (%)” value stood at 11.4% and the EC50 is 2720 nM. In assay [2], the “BRET β-Arrestin2 High AT1R Expression Ymax (%)” value was 54.3% and the response was half-maximal at 1780 nM (EC50). In addition, in assay [3], the EC50 was determined as 709 nM and the “DiscoveRx β-arrestin2 Ymax (%)” value turned out to be 25.1%. For the same compound, in assay [4], the “BRET P63 Ymax” value is listed as 4.3% and the half-maximal effective concentration (EC50) turned out to be 2040 nM.
For `CCc1nc2c(C)cc(C)nc2n1Cc1ccc(-c2cc(-c3ccc(C(=O)N(C)C)cc3)ccc2C(=O)O)cc1` [Example 185], in assay [1], the “IP-1 Ymax (%)” value is recorded as 13.8% and the EC50 is 204 nM. Moreover, in assay [2], the “BRET β-Arrestin2 High AT1R Expression Ymax (%)” value is on record as 86.7% and the EC50 worked out at 149 nM. Further, in assay [3], the EC50 was determined as 139 nM and the “DiscoveRx β-arrestin2 Ymax (%)” value worked out at 48.9%. For the same compound, in assay [4], the “BRET P63 Ymax” value was found to be 11.7% and the EC50 came out at 447 nM.
As for `CCc1nc2c(C)cc(C)nc2n1Cc1ccc(-c2cc(-c3cncn3C)ccc2-c2nn[nH]n2)cc1` [Example 58], in assay [1], the “IP-1 Ymax (%)” value was 3.1% and the EC50 was determined as 427 nM. Also, in assay [2], the “BRET β-Arrestin2 High AT1R Expression Ymax (%)” value came out at 46.2% and the EC50 came to 190 nM. In addition, in assay [3], it took 86.2 nM to reach a half-maximal effect (EC50) and the “DiscoveRx β-arrestin2 Ymax (%)” value was 12.7%.
In the case of `CCc1nc2c(C)cc(C)nc2n1Cc1ccc(-c2cc(N3CCC(OC)CC3)ccc2-c2nn[nH]n2)cc1` [Example 87], in assay [1], the “IP-1 Ymax (%)” value is recorded as 7.2% and the EC50 was determined as 42 nM. In assay [2], the “BRET β-Arrestin2 High AT1R Expression Ymax (%)” value is 29.1% and the EC50 came to 451 nM. For the same compound, in assay [3], the EC50 amounted to 42.5 nM and the “DiscoveRx β-arrestin2 Ymax (%)” value came out at 16.7%.
For the compound `CCCCC1=NC2(CCCC2)C(=O)N1Cc1ccc(-c2cc(-n3ccc4ccccc43)ccc2-c2nn[nH]n2)cc1` [Example 105], the EC50 in assay [1] was above 100000 nM; in assay [2] it was 28.9 nM; in assay [3] it was 16 nM. Moreover, the “BRET β-Arrestin2 High AT1R Expression Ymax (%)” value in assay [2] is on record as 58.0%. The “DiscoveRx β-arrestin2 Ymax (%)” value in assay [3] is reported as 31.0%.
Regarding `CCCCC1=NC2(CCCC2)C(=O)N1Cc1ccc(-c2cc(N3CCCC(F)(F)C3)ccc2-c2noc(=O)[nH]2)cc1` [Example 121, 3-(4′-((2-butyl-4-oxo-1,3-diazaspiro[4.4]non-1-en-3-yl)methyl)-5-(3,3-difluoropiperidin-1-yl)-[1,1′-biphenyl]-2-yl)-1,2,4-oxadiazol-5(4H)-one], in assay [1], the “IP-1 Ymax (%)” value came out at 7.2% and the EC50 came out at 368 nM. In addition, in assay [2], the “BRET β-Arrestin2 High AT1R Expression Ymax (%)” value is reported as 98.0% and it took 431 nM to reach a half-maximal effect (EC50). Besides, in assay [3], the EC50 came to 302 nM and the “DiscoveRx β-arrestin2 Ymax (%)” value was 47.4%.
As to `CCc1nc2c(C)cc(C)nc2n1Cc1ccc(-c2cc(-c3cnn(C)c3)ccc2-c2nn[nH]n2)cc1` [Example 21], in assay [1], the “IP-1 Ymax (%)” value was found to be 6.9% and the EC50 was 77.3 nM. Moreover, in assay [2], the “BRET β-Arrestin2 High AT1R Expression Ymax (%)” value is 64.0% and the EC50 was determined as 51.4 nM. For the same compound, in assay [3], a half-maximal effect (EC50) was put at 22.1 nM and the “DiscoveRx β-arrestin2 Ymax (%)” value is reported as 21.1%.
Regarding `CCCCC(=O)N(Cc1ccc(-c2cc(-c3ccccc3)ccc2-c2nn[nH]n2)cc1)[C@H](C(=O)O)C(C)C` [Example 34, (S)-2-(N-((6′-(2H-Tetrazol-5-yl)-[1,1′:3′,1″-terphenyl]-4-yl)methyl)pentanamido)-3-methylbutanoic acid], in assay [1], the “IP-1 Ymax (%)” value was 3.8% and the EC50 came out at 178 nM. Besides, in assay [2], the “BRET β-Arrestin2 High AT1R Expression Ymax (%)” value is recorded as 68.4% and the EC50 came out at 50.6 nM. Also, in assay [3], the EC50 is 40.3 nM and the “DiscoveRx β-arrestin2 Ymax (%)” value is given as 35.6%.
On to `CCc1nc2c(C)cc(C)nc2n1Cc1ccc(-c2cc(N3CCc4ccccc43)ccc2-c2nn[nH]n2)cc1` [Example 96], for which, in assay [1], the “IP-1 Ymax (%)” value came out at 5.3% and the EC50 was found to be 28.7 nM. Further, in assay [2], the “BRET β-Arrestin2 High AT1R Expression Ymax (%)” value is given as 77.6% and a half-maximal effect (EC50) was put at 12.9 nM. For the same compound, in assay [3], it took 12.6 nM to reach a half-maximal effect (EC50) and the “DiscoveRx β-arrestin2 Ymax (%)” value is 33.0%.

A word on the EC50: it is the midpoint of the concentration-response curve.

(Values after patent US12037324B2, “Biarylmethyl heterocycles” (Université de Montréal, priority 2016, dated 2024).)
